{
  "source": "patent US20060178307A1",
  "about": "“Modulation of NMDA receptor currents via orexin receptor and/or CRF receptor” (priority 2005, published 2006)",
  "key": {"[1]": {"system": "NMDAR-mediated EPSCs in VTA dopamine neurons", "test": "Evoked NMDAR-mediated EPSCs, whole-cell voltage clamp at +40 mV, VTA neurons in midbrain slices", "format": "cell-based, rat", "conditions": "for effect on orexin A-mediated potentiation of NMDAR EPSCs: antagonist 1 μM, n=8 (FIG. 1C)", "description": "(§1) Excitatory postsynaptic currents (EPSCs) were recorded from VTA neurons in rat midbrain slices. EPSCs were evoked while holding neurons in voltage clamp at +40 mV. Measurements were taken 20 ms after the stimulus artifact, a time point at which the glutamatergic EPSC is mediated purely by NMDARs.\nThe patch pipette was loaded with the PLC inhibitor, U-73122 (1 μM, FIG. 2A, C, n=6) or the PKC inhibitor, chelerythrin (1 μM, FIG. 1A, B, n=6). […] Next, the protein kinase A inhibitor, PKI (20 μM, FIG. 2A, F, n=8) or Rp-cAMPs, a blocker of cAMP (100 μM, FIG. 2A, E, n=5) was added to the patch pipette.\nActivation of PKC is implicated in NMDAR-dependent long-term potentiation (Malinow et al., 1989) and it modulates NMDAR trafficking to the membrane (Lan et al., 2001; Scott et al., 2001; Fong et al., 2002). NMDARs can translocate from intracellular or extrasynaptic pools to synaptic sites (Lan et al., 2001; Tovar and Westbrook, 2002). […] In a separate group of slices, orexin A (100 nM, n=6) was applied for 5 min during the washout period.\n(§2) All of the electrophysiological recordings were performed in rats ranging from P21 to P30. Briefly, rats were anesthetized with halothane and sacrificed. Horizontal sections of the VTA ([…]) were prepared with a vibratome (Leica, Nussloch, Germany). Slices were placed in a holding chamber and allowed to recover for at least 1 hour before being placed in the recording chamber and superfused with bicarbonate-buffered solution (ACSF) saturated with 95% O2/5% CO2 and containing (in mM): 119 NaCl, 1.6 KCl, 1.0 NaH2PO4, 1.3 MgCl2, 2.5 CaCl2, 26.2 NaHCO3 and 11 glucose (at 32-34° C.). Picrotoxin (100 μM) was added to block GABAA receptor-mediated inhibitory postsynaptic currents. Cells were visualized using infrared differential interference contrast video microscopy. Whole-cell voltage clamp recordings were made using an Axopatch 1D amplifier (Axon Instruments, Union City, Calif.). Electrodes (2.8-4.0 MΩ) contained (in mM): 120 Cesium Methansulfonate, 20 HEPES, 0.4 EGTA, 2.8 NaCl, 5 TEA-Cl, 2.5 MgATP, and 0.25 NaGTP, pH 7.2-7.3 (270-285 mOsm). Series resistance (10-40 MΩ) and input resistance were monitored on-line with a 4-mV depolarizing step (50 ms) given just after every afferent stimulus. Dopaminergic VTA neurons were identified by the presence of a large Ih current (Lacey et al., 1990; Johnson and North, 1992) and, in some cases, tyrosine hydroxylase labeling. A bipolar stimulating electrode was placed 100-300 μm rostral to the recording electrode and was used to stimulate excitatory afferents at 0.1 Hz. Neurons were voltage-clamped at −70 mV and +40 mV to record AMPAR- and NMDAR-mediated EPSCs."}, "locomotor activity [2]": {"system": "locomotor activity", "test": "Locomotor sensitization to cocaine, i.p. OXR1 antagonist, open field", "format": "in vivo, Sprague-Dawley rats", "description": "To determine if orexin signaling plays a role in behavioral sensitization to cocaine, either the OXR1 antagonist SB 334867 (10 mg/kg, i.p.) or vehicle was injected 15 min prior to injecting cocaine (15 mg/kg, i.p) or saline (0.9%), and then the rats were placed in an open field chamber to measure locomotor activity for 1 hour each day for 5 days.\nTherefore, to determine if expression of cocaine sensitization requires release of orexin acting at the OXR1 receptor, the OXR1 antagonist SB 334867 (10 mg/kg) was injected with cocaine (15 mg/kg) on day 6 into either cocaine-sensitized or saline-treated rats.\nMale Sprague-Dawley Rats (P21-P30; Charles River, N.C.) were singly housed with food and water available ad libitum. A 12 hr light/dark cycle was used, with the lights on at 7:00 A.M. All cocaine injections and behavioral testing were performed during the light cycle for consecutive days. The four treatment groups consisted of rats given 5 daily i.p. injections of SB 334867 (10 mg/kg) 15 min preceding i.p. injection of cocaine (15 mg/kg) or saline (0.9% NaCl), or i.p. injections of vehicle (10% DMSO and 25% β-hydroxy cyclodextrin in saline) 15 min preceding i.p. injection of cocaine or saline. All animals were habituated to the photocell boxes (Med Associates, St. Albans, Vt.) for 2 hours prior to the start of the experiment. All animals were further habituated to the photocell boxes for 30 min prior to 60 min testing session. Locomotor activity was measured in 17″×17″ chambers lined with three 16-beam I/R arrays. A 50 ms scanning rate was used for measurement of beams broken. Distance traveled was measured using Open Field Activity Software (Med Associates, Inc) and analyzed for estimates of locomotion based on the movement of a given distance and resting delay (movement in a given period of time)."}, "locomotor activity [3]": {"system": "locomotor activity", "test": "Locomotor sensitization to cocaine, intra-VTA OXR1 antagonist, 7-day paradigm", "format": "in vivo, Sprague-Dawley rats", "description": "Male Sprague-Dawley rats (250 grams) were implanted with bilateral cannulae directed at the VTA (AP, −5.2; ML, ±0.5, DV −8.0). Following recovery from surgery, animals were tested in a cocaine sensitization assay similar to that used for systemic administration of the OXR1 antagonist, but with two changes: a 7-day sensitization paradigm was used, and the OXR1 antagonist SB 334867 was microinjected directly into the VTA (6 μg/hemisphere in 300 nL solution composed of 10% DMSO in water). All other methods for habituation and data collection were identical to that described above. Rats were deeply anesthetized with pentobarbital, and perfused with a 10% formaldehyde solution. Brains were cryoprotected in 25% sucrose, 40 μm coronal sections were cut on a freezing microtome, and sections were mounted, dried and coverslipped. Injection sites were located under a light microscope and recorded on atlas figures adapted from Paxinos and Watson (1997)."}, "[4]": {"system": "AMPAR-mediated EPSCs in VTA dopamine neurons", "test": "Evoked AMPAR-mediated EPSCs recorded at −70 mV, VTA slices", "format": "cell-based, rat", "conditions": "orexin A 100 nM", "description": "as §1\nas §2, with “Electrodes (2.8-4.0 MΩ) contained (in mM): 120 Cesium Methansulfonate, 20 HEPES, 0.4 EGTA, 2.8 NaCl, 5 TEA-Cl, 2.5 MgATP, and 0.25 NaGTP, pH 7.2-7.3 (270-285 mOsm).” left out, “Dopaminergic VTA neurons were identified by the presence of a large Ih current (Lacey et al., 1990; Johnson and North, 1992) and, in some cases, tyrosine hydroxylase labeling. A bipolar stimulating electrode was placed 100-300 μm rostral to the recording electrode and was used to stimulate excitatory afferents at 0.1 Hz. Neurons were voltage-clamped at −70 mV and +40 mV to record AMPAR- and NMDAR-mediated EPSCs.” left out"}, "AMPAR-induced current": {"system": "AMPAR-induced current", "test": "Holding current change on bath-applied AMPA with cyclothiazide", "format": "cell-based, rat"}, "[5]": {"conditions": "orexin A 100 nM in the presence of ifenprodil 3 μM, n=6"}},
  "note": "Entries after “also recorded” stand apart in the source; their conditions may differ. Where no end group is shown, it is not given here.",
  "data": [
    {"molecule": "Cc1nc2ccc(NC(=O)Nc3ccnc4cccnc34)cc2o1.Cl", "note": "[SB 334867, 1-(2-methylbenzoxazol-6-yl)-3-[1,5]naphthyridin-4-yl urea hydrochloride]", "values": [
      {"measurement": "effect on orexin A-mediated potentiation of NMDAR EPSCs", "setting": "[1]; hydrochloride", "result": "significantly inhibited"},
      {"measurement": "effect on orexin A-mediated potentiation of NMDAR EPSCs", "setting": "[1]; listed as SB 334857, hydrochloride", "result": "blocked"},
      {"measurement": "baseline locomotor activity", "setting": "locomotor activity [2]; 10 mg/kg i.p. with saline, n=13", "result": "did not reduce"},
      {"measurement": "development of sensitization to cocaine", "setting": "locomotor activity [2]; 10 mg/kg i.p., 5 days", "result": "significantly blocked"},
      {"measurement": "locomotor activity on day 6 (expression of cocaine sensitization)", "setting": "locomotor activity [2]; 10 mg/kg injected with cocaine on day 6, n=7 in each group", "result": "not significantly reduced"},
      {"measurement": "distance traveled on day 5", "setting": "locomotor activity [2]; SB 334867 10 mg/kg i.p. 15 min prior to cocaine 15 mg/kg i.p.", "result": "8504±2564", "unit": "cm"},
      {"measurement": "locomotor activity on day 1", "setting": "locomotor activity [2]; cocaine-treated rats given SB334867 10 mg/kg, n=11", "result": "3579±1079", "unit": "cm"},
      {"measurement": "development of locomotor sensitization to cocaine", "setting": "locomotor activity [3]; daily intra-VTA 6 μg/hemisphere prior to cocaine 15 mg/kg, 7 days", "result": "abolished"},
      {"measurement": "mean locomotor distance on day 7", "setting": "locomotor activity [3]; intra-VTA OXR1 antagonist 6 μg/hemisphere + cocaine", "result": "19274±4559", "unit": "cm"},
      {"measurement": "expression of pre-existing cocaine sensitization", "setting": "locomotor activity [3]; single intra-VTA injection", "result": "did not affect"}
    ]},
    {"molecule": "orexin A: neuropeptide synthesized in neurons of the LH; orexin receptor agonist selective for the OXR1 receptor (QPLPDCCRQKTCSCRLYELLHGAGNHAAGILTL; ends and bridges not checked; cysteine pairing not given here; UniProt O43612 34-66, looked up)", "values": [
      {"measurement": "response of neurons that did not express TH", "setting": "[1]; 2 TH-negative neurons", "result": "neither responded"},
      {"measurement": "NMDAR eEPSCs potentiated to a maximum of", "setting": "[1]; 5 min co-application of orexin A 1 nM with CRF 10 nM, n=7", "result": "123±12", "unit": "%"},
      {"measurement": "NMDAR EPSC before orexin A", "setting": "[1]; NR2A/C (NVP-AAM077 0.4 μM) and NR2B (ifenprodil 3 μM) inhibitors co-applied, n=6", "result": "32±5", "unit": "%"},
      {"measurement": "TH-containing neurons with potentiated NMDAR responses", "setting": "[1]; biocytin-filled, tyrosine hydroxylase positive neurons", "result": "7/8"},
      {"measurement": "potentiation of NMDAR-mediated EPSCs", "setting": "[1]; orexin A 1 nM (FIG. 1B), n=6", "result": "5±1", "unit": "%"},
      {"measurement": "potentiation of NMDARs", "setting": "[1]; orexin A 1 nM (FIG. 14A), n=6", "result": "5.7±1.6", "unit": "%"},
      {"measurement": "potentiation of NMDAR-mediated EPSCs", "setting": "[1]; orexin A 10 nM (FIG. 1B), n=6", "result": "18±3", "unit": "%"},
      {"measurement": "maximum current after MK-801 washout", "setting": "[1]; orexin A 100 nM 5 min during washout of MK-801 10 μM, n=6", "result": "40±17", "unit": "%"},
      {"measurement": "potentiation of NMDAR-mediated EPSCs", "setting": "[1]; orexin A 100 nM (FIG. 1B), n=6", "result": "42±5", "unit": "%"},
      {"measurement": "orexin A potentiation of NMDAR EPSCs", "setting": "[1]; orexin A 100 nM after NVP-AAM077 0.4 μM and ifenprodil 3 μM co-application", "result": "largely inhibited; also recorded: blocked"},
      {"measurement": "duration of potentiation after washout", "setting": "[1]; orexin A 100 nM applied for 30 min", "result": "> 40", "unit": "min"},
      {"measurement": "potentiation of NMDAR EPSCs", "setting": "[1]; orexin A 100 nM applied for 30 min, n=6", "result": "74±16", "unit": "%"},
      {"measurement": "potentiation of NMDAR-mediated EPSCs", "setting": "[1]; orexin A 100 nM bath application 5 min (FIG. 1A), n=12", "result": "49±9", "unit": "%"},
      {"measurement": "maximum potentiation of NMDAR EPSCs", "setting": "[1]; orexin A 100 nM in the presence of NVP-AAM077 0.4 μM, n=7", "result": "20±6", "unit": "%"},
      {"measurement": "effect on remaining current", "setting": "[1]; orexin A 100 nM in the presence of NVP-AAM077, ifenprodil and PPDA", "result": "did not alter"},
      {"measurement": "maximum amplitude, of baseline EPSCs", "setting": "[1]; [5]", "result": "107±16", "unit": "%"},
      {"measurement": "potentiation of NMDAR-mediated EPSCs", "setting": "[1]; [5]", "result": 36, "unit": "%"},
      {"measurement": "NMDAR EPSC after orexin A", "setting": "[1]; orexin A 100 nM with NVP-AAM077 0.4 μM and ifenprodil 3 μM co-applied, n=6", "result": "45±12", "unit": "%"},
      {"measurement": "neurons with potentiation greater than 10% / neurons recorded", "setting": "[1]; orexin A 100 nM, 5 min", "result": "10/12"},
      {"measurement": "maximum current after MK-801 and NMDA washout", "setting": "[1]; orexin A 5 min during washout of MK-801 20 μM + NMDA 500 μM, n=6", "result": "20±2", "unit": "%"},
      {"measurement": "maximum potentiation of NMDARs", "setting": "[1]; orexin A in the presence of Zn2+ (300 nM), n=5", "result": "14±4", "unit": "%"},
      {"measurement": "change of AMPAR-mediated EPSCs", "setting": "[4]; n=8", "result": "not changed"},
      {"measurement": "change of AMPAR-mediated EPSCs", "setting": "[4]; n=8, listed as Orexin A", "result": "does not increase"},
      {"measurement": "AMPAR-induced current", "setting": "AMPAR-induced current; AMPA 2 μM 30 sec + cyclothiazide 100 μM, 15 min after orexin A 100 nM, n=5", "result": "−243±79", "unit": "pA"},
      {"measurement": "AMPAR-induced current", "setting": "AMPAR-induced current; AMPA 2 μM + cyclothiazide, 3-4 hours after orexin A 100 nM, n=6", "result": "−367±63", "unit": "pA"}
    ]}
  ]
}
